Measurements taken from patent publication US7943382B2, “Method for inspecting fat-soluble vitamin and/or fat-soluble food factor by saliva analysis” (Mitsubishi Chemical Medience Corporation, priority 2004, dated 2011).

Columns and labels:
[1] = Transition of the lycopene and β-carotene levels in parotid saliva on ingestion of lycopene + β-carotene MAX1; format: in vivo, human; details: lycopene + β-carotene MAX1, two tablets (20 mg lycopene, 60 mg β-carotene) every morning for a week, then two weeks discontinuation; FIGS. 9 and 10
Procedure: 2 of 3 volunteers were made to ingest orally two commercial supplement lycopene +β-carotene MAX1 (trade name, Minami Healthy Food Co.) containing 10 mg of lycopene and 30 mg of β-carotene per one tablet (20 mg of lycopene and 60 mg of β-carotene per two tablet) at 7:00 every morning continuously for a week, and as a specimen, parotid saliva was collected from PM 4:00 to 5:00, three times, that is, before ingestion and one week after ingestion and two weeks after discontinuation of ingestion. The volunteer had the mouth rinsed with water, and kept quiet on a chair for 5 minutes, while the volunteer accumulated saliva in the oral cavity and discharged to initialize the oral cavity, followed by collecting saliva. […] The ingestion states of the supplement, that is, before ingestion and one week after ingestion, and two weeks after discontinuation of ingestion, are arranged on the horizontal axis as points, and the concentrations of lycopene and β-carotene (hereinafter, the measured concentrations of lycopene and β-carotene will be referred to “lycopene level” and “β-carotene level” respectively) in parotid saliva are arranged on the vertical axis, and transition of the lycopene and β-carotene levels in parotid saliva depending on ingestion of supplements is shown in FIGS. 9 and 10.

[2] = cited from earlier work
[3] = Chromatograms of parotid saliva specimens A, B and C (HPLC with ECD detection); format: in vivo, human; details: Supplement N, one tablet every morning and evening for a month (60 mg CoQ10, 20 mg α-tocopherol per day)
Procedure: In pretreatment of the specimens, 20 μl of plasma and 180 μl of ethanol (Wako Pure Chemical Industries, Ltd.: HPLC grade) were added to an autosampler vial (sampler vial PP 250 μl: Shiseido Co., Ltd.) to have a final ethanol concentration of 90% (V/V), which was centrifuged under cooling by 1000 G for 5 minutes to precipitate proteins. In the case of directly collected saliva, 150 μl of ethanol was added to 50 μl of the specimen to have a final ethanol concentration of 75% (V/V), which was centrifuged under cooling by 1000 G for 5 minutes to precipitate proteins. […]
Ubidecarenol, tocopherol, lycopene and β-carotene can be quantitatively analyzed at 600 mV. […] Therefore, CoQ10 is converted into ubidecarenol by reducing the carbonyl group to the OH group using the above-mentioned commercial online reduction column, and then detected in an oxidation mode using the amperometry-type electrochemical detector 3005 (Shiseido Co., Ltd.) or the pulse-type electrochemical detector 3016 (Shiseido Co., Ltd.) under the HPLC condition shown in FIGS. 1 and 2, allowing the bulk detection as shown in FIGS. 3 and 4. […]

[4] = Transition of the tocopherol level in parotid saliva on ingestion of supplement S; format: in vivo, human; details: two tablets (32.8 mg α-tocopherol) every morning for a week, then two weeks discontinuation, 3 volunteers, FIG. 8
Procedure: 3 volunteers were made to ingest orally two commercial CoQ10 supplement S containing 32.8 mg of tocopherol per two tablets as α-tocopherol at 7:00 every morning continuously for a week, and as a specimen, parotid saliva was collected from PM 4:00 to 5:00, three times, that is, before ingestion and one week after ingestion and two weeks after discontinuation of ingestion. The volunteer had the mouth rinsed with water, and kept quiet on a chair for 5 minutes, while the volunteer accumulated saliva in the oral cavity and discharged to initialize the oral cavity, followed by collecting saliva. […] The ingestion states of the supplement, that is, before ingestion and one week after ingestion, and two weeks after discontinuation of ingestion are arranged on the horizontal axis as points, and the tocopherol concentrations (hereinafter, the measured concentration of tocopherol will be referred to “tocopherol level”) in parotid saliva are arranged on the vertical axis, and transition of the tocopherol level in parotid saliva depending on states of supplements with tocopherol is shown in FIG. 8.

| Compound | transition of the level in parotid saliva [1] | detection in the parotid saliva ([2]; Nonpatent document No. 1) | correlation between the serum level and the whole saliva level ([2]; Nonpatent documents No. 1 and 2) | peak in chromatogram of parotid saliva A (supplement-ingesting volunteer) compared with B (non-ingesting volunteer) [3] | transition of the tocopherol level in parotid saliva [4] |
| --- | --- | --- | --- | --- | --- |
| CC(C)=CCC/C(C)=C/C=C/C(C)=C/C=C/C(C)=C/C=C/C=C(C)/C=C/C=C(C)/C=C/C=C(\C)CCC=C(C)C [lycopene] | obviously increased in the two volunteers who ingested the supplement compared with one volunteer without ingestion, and decreased by discontinuation of ingestion |  |  |  |  |
| CC1=C(/C=C/C(C)=C/C=C/C(C)=C/C=C/C=C(C)/C=C/C=C(C)/C=C/C2=C(C)CCCC2(C)C)C(C)(C)CCC1 [β-carotene] | obviously increased in the two volunteers who ingested the supplement compared with one volunteer without ingestion, and decreased by discontinuation of ingestion | could not be detected | positive correlation |  |  |
| Tocopherol |  |  |  | higher peak | increased by ingestion and decreased by discontinuation of ingestion |
